In US7807678B2, “Peptidomimetics of biologically active metallopeptides” (Palatin Technologies, Inc., priority 2001, dated 2010):

How the values were obtained:
[1] = target: T1, MC1-R (B-16 mouse melanoma cells) (Mus musculus, UniProt Q01727); assay: Competitive inhibition binding assay, 125I-NDP-α-MSH, MC1-R; conditions: for Inhibition at 1 μM MC1-R: 1 μM compound, inhibition of 125I-NDP-α-MSH binding, mean of triplicates, results less than 0% reported as 0%
T1 construct: B-16 mouse melanoma cells (containing MC1-R); endogenous in cells; host or cells: B-16 mouse melanoma cells
Experimental: (§1) The competitive inhibition binding assay was conducted using membranes prepared from hMC3-R, hMC4-R, hMC5-R, and B-16 mouse melanoma cells (containing MC1-R) using 0.4 nM ^125I-NDP-α-MSH (New England Nuclear, Boston, Mass., USA) in 50 mM HEPES buffer containing 1 mM MgCl2, 2 mM CaCl2, and 5 mM KCl, at pH 7.2. The assay tube also contained a chosen concentration of the test peptidomimetic of this invention, generally 1 μM, for determining its efficacy in inhibiting the binding of ^125I-NDP-α-MSH to its receptor.
(§2) Incubation was for 90 minutes at room temperature, after which the assay mixture was filtered and the membranes washed three times with ice cold buffer. The filter was dried and counted in a gamma counter for remaining radioactivity bound to the membranes. 100% specific binding was defined as the difference in radioactivity (cpm) bound to cell membranes in the absence and presence of 1 μM α-MSH. […] Each assay was conducted in triplicate and the actual mean values are described.

MC3-R = MC3-R (Homo sapiens, UniProt P41968); assay: Competitive inhibition binding assay, 125I-NDP-α-MSH, MC3-R; set-up: expressed in transfected cells; conditions: for Inhibition at 1 μM MC3-R: 1 μM compound, inhibition of 125I-NDP-α-MSH binding, mean of triplicates, results less than 0% reported as 0%
Experimental: as §1, §2

MC4-R = MC4-R (Homo sapiens, UniProt P32245); assay: Competitive inhibition binding assay, 125I-NDP-α-MSH, MC4-R; set-up: expressed in transfected cells; conditions: for Inhibition at 1 μM MC4-R: 1 μM compound, inhibition of 125I-NDP-α-MSH binding, mean of triplicates, results less than 0% reported as 0%
Experimental: as §1, §2

MC5-R = MC5-R (Homo sapiens, UniProt P33032); assay: Competitive inhibition binding assay, 125I-NDP-α-MSH, MC5-R; set-up: expressed in transfected cells; conditions: 1 μM compound; inhibition of 125I-NDP-α-MSH binding; mean of triplicates; results less than 0% reported as 0%
Experimental: as §1, §2

MC5-R, sequence (P33032 whole entry): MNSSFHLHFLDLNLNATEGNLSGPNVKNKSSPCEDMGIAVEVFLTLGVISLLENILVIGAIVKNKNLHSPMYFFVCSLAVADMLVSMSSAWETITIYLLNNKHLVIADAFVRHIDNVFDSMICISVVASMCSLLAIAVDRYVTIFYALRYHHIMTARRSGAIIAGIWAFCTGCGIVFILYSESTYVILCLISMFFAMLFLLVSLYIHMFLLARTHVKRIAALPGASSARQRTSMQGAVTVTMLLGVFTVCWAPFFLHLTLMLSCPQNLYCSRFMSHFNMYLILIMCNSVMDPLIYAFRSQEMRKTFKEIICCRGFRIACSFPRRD
MC3-R, sequence (P41968 whole entry): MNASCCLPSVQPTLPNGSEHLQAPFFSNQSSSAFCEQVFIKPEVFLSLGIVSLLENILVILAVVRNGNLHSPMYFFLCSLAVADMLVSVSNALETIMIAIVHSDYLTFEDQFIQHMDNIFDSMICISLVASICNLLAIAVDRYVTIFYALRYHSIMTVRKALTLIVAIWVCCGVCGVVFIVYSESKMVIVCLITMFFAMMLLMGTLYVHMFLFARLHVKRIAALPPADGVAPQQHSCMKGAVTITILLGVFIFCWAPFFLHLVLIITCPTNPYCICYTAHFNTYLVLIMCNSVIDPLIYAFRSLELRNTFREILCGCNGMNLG
T1 sequence (Q01727 whole entry): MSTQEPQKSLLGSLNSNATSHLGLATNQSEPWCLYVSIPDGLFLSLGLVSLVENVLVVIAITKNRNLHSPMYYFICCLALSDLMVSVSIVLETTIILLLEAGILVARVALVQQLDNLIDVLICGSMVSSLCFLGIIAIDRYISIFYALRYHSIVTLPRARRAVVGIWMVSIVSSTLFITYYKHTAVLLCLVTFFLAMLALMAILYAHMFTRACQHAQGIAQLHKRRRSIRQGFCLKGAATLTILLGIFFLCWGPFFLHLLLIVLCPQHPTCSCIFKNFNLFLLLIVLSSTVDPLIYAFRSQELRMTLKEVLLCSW
MC4-R, sequence (P32245 whole entry): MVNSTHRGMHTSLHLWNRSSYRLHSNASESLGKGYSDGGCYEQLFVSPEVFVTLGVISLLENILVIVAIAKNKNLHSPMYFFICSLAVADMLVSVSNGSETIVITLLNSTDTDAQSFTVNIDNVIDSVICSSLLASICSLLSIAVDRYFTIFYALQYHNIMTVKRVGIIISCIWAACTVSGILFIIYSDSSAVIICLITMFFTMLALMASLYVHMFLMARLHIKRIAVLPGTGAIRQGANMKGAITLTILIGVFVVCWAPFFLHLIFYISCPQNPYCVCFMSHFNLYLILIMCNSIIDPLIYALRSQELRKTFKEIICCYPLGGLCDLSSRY

Inhibition at 1 μM MC1-R [1] [%]	Inhibition at 1 μM MC3-R (MC3-R) [%]	Inhibition at 1 μM MC4-R (MC4-R) [%]	Inhibition at 1 μM MC5-R (MC5-R) [%]	inhibition at 1 µM [1] [%]	inhibition at 1 µM (MC3-R) [%]	inhibition at 1 µM (MC4-R) [%]	SMILES
46	39	40	14	–	–	–	NCCCC[C@H]1C(=O)N(CCc2ccccc2)CCN1C(=O)[C@@H](Cc1ccc(Cl)cc1)NC(=O)[C@@H](N)COCc1ccccc1 [Example 12]
81	64	94	90	–	–	–	N=C(N)NCCC[C@H]1C(=O)N(CCc2c[nH]c3ccccc23)CCN1C(=O)[C@@H](Cc1ccc(Cl)cc1)NC(=O)[C@@H](N)COCc1ccc(Cl)cc1 [Example 15]
86	55	96	81	–	–	–	N=C(N)NCCC[C@H]1C(=O)N(CCc2c[nH]c3ccccc23)CCN1C(=O)[C@@H](Cc1ccc(Cl)cc1)NC(=O)[C@@H](N)COCc1ccccc1 [Example 16]
64	21	64	72	–	–	–	NCCCC[C@H]1C(=O)N(CCOc2ccc3ccccc3c2)CCN1C(=O)[C@@H](Cc1ccc(Cl)cc1)NC(=O)[C@@H](N)COCc1ccccc1 [Example 29]
13	10	61	30	–	–	–	CC(=O)NCCCC1C(=O)N(CCc2ccc3ccccc3c2)CCN1C(=O)C(Cc1ccc(Cl)cc1Cl)NC(=O)C(N)COCc1ccccc1 (stereo not drawn) [Example 42]
5	11	72	31	–	–	–	CNC(=O)NCCC[C@H]1C(=O)N(CCc2ccc3ccccc3c2)CCN1C(=O)[C@@H](Cc1ccc(Cl)cc1Cl)NC(=O)[C@@H](N)COCc1ccccc1 [Example 45]
0	12	60	25	–	–	–	N[C@@H](COCc1ccccc1)C(=O)N[C@H](Cc1ccc(Cl)cc1Cl)C(=O)N1CCN(CCc2ccc3ccccc3c2)C(=O)[C@@H]1CCCNS(N)(=O)=O [Example 46]
0	9	40	14	–	–	–	CS(=O)(=O)NCCC[C@H]1C(=O)N(CCc2ccc3ccccc3c2)CCN1C(=O)[C@@H](Cc1ccc(Cl)cc1Cl)NC(=O)[C@@H](N)COCc1ccccc1 [Example 47]

Further lines, the compound ahead of its results:

SMILES	Inhibition at 1 μM MC1-R [1] [%]	Inhibition at 1 μM MC3-R (MC3-R) [%]	Inhibition at 1 μM MC4-R (MC4-R) [%]	Inhibition at 1 μM MC5-R (MC5-R) [%]	inhibition at 1 µM [1] [%]	inhibition at 1 µM (MC3-R) [%]	inhibition at 1 µM (MC4-R) [%]
CCCCCCC(=O)N[C@@H](COCc1ccccc1)C(=O)N[C@H](Cc1ccccc1Cl)C(=O)N1CCN(CCc2c[nH]c3ccccc23)C(=O)[C@@H]1CCCCN [Example 11]	96	51	99	82	–	–	–
NCCCC[C@H]1C(=O)N(CCc2ccccc2)CCN1C(=O)[C@@H](Cc1ccc(Cl)cc1)NC(=O)[C@@H]1Cc2ccccc2CN1 [Example 13]	68	21	66	16	–	–	–
N=C(N)NCCC[C@H]1C(=O)N(CCc2c[nH]c3ccccc23)CCN1C(=O)[C@@H](Cc1ccccc1Cl)NC(=O)[C@@H]1Cc2ccccc2CN1 [Example 18]	95	50	99	62	–	–	–
N=C(N)NCCC[C@H]1C(=O)N(CCc2c[nH]c3ccccc23)CCN1C(=O)[C@@H](Cc1ccccc1Cl)NC(=O)[C@@H]1C[C@@H](OCc2ccccc2)CN1 [Example 19]	91	59	99	85	–	–	–
N=C(N)NCCC[C@H]1C(=O)N(CCc2c[nH]c3ccccc23)CCN1C(=O)[C@@H](Cc1ccccc1Cl)NC(=O)[C@@H](N)COCc1ccccc1 [Example 20]	87	40	98	71	–	–	–
N=C(N)NCCCC1C(=O)N(CCc2c[nH]c3ccccc23)CCN1C(=O)C(Cc1ccccc1Cl)NC(=O)C1CCC(c2ccccc2)N1 (stereo not drawn) [Example 21]	62	22	83	19	–	–	–
NCCCC[C@H]1C(=O)N(CCOc2ccc3ccccc3c2)CCN1C(=O)[C@@H](Cc1ccc(Cl)cc1)NC(=O)[C@@H]1Cc2ccccc2CN1 [Example 30]	88	35	88	65	–	–	–
NCCCC[C@H]1C(=O)N(CCc2ccc3ccccc3c2)CCN1C(=O)[C@H](N)Cc1ccc(Cl)cc1Cl [Example 35]	9	3	62	4	–	–	–
COC(=O)NCCC[C@H]1C(=O)N(CCc2ccc3ccccc3c2)CCN1C(=O)[C@@H](Cc1ccc(Cl)cc1Cl)NC(=O)[C@@H](N)COCc1ccccc1 [Example 43]	1	0	43	20	–	–	–
NCCC[C@H]1C(=O)N(CCc2ccc3ccccc3c2)CCN1C(=O)[C@H](N)Cc1ccc(Cl)cc1Cl [Example 49]	2	0	43	1	–	–	–
NC(=O)CC[C@H]1C(=O)N(CCc2ccc3ccccc3c2)CCN1C(=O)[C@H](N)Cc1ccc(Cl)cc1Cl [Example 50]	0	0	0	0	–	–	–
NCC[C@H]1C(=O)N(CCc2ccc3ccccc3c2)CCN1C(=O)[C@H](N)Cc1ccc(Cl)cc1Cl [Example 54]	28	11	55	23	–	–	–
N[C@H](Cc1ccc(Cl)cc1Cl)C(=O)N1CCN(CCc2ccc3ccccc3c2)C(=O)[C@@H]1CCNC1=NCCN1 [Example 55]	24	14	68	27	–	–	–
N=C(N)NCC[C@H]1C(=O)N(CCc2ccc3ccccc3c2)CCN1C(=O)[C@H](N)Cc1ccc(Cl)cc1Cl [Example 56]	21	13	81	24	–	–	–
NC(=O)NCC[C@H]1C(=O)N(CCc2ccc3ccccc3c2)CCN1C(=O)[C@H](N)Cc1ccc(Cl)cc1Cl [Example 57]	11	0	9	5	–	–	–
N[C@H](Cc1ccc(Cl)cc1Cl)C(=O)N1CCN(CCc2ccc3ccccc3c2)C(=O)[C@@H]1CCCn1cncn1 [Example 58]	7	0	0	3	–	–	–
[2H]N[C@@H](Cc1cnc[nH]1)C(=O)N[C@@H](Cc1ccccc1)C(=O)N1C2CC[C@H](COc3ccc4ccccc4c3)N2C(=O)[C@@H]1CCCCN (stereo partly drawn) [Example 111]	–	–	–	–	94	9	10
